We go through ten molecules from ChEMBL document CHEMBL1201862, “PubChem BioAssay data set” (2004).

Some test systems named below: 786-0; A498; CAKI-1; CCRF-CEM; COLO 205; DU-145; EKVX; HCT-116; HCT-15; IGROV-1; LOX IMVI; MCF7; MDA-N; OVCAR-4; SN12C; SNB-19; SR; T47D; UACC-257; UO-31.
Experiment in all cases: NCI tumour cell line growth inhibition, 48 h

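96-well plates; 48 h exposure; 5 concentrations. Endpoints by linear interpolation between flanking doses. Not reached: highest tested concentration assigned. The concentration for 50% growth inhibition is given as GI50.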 Activity calls are given as the source filed them. Rule as the data show it: active = GI50 up to about 1.1 µM and inactive = higher.

For `Cc1nc(O)c(Cc2ccccc2O)c(-c2ccccc2)n1`, the GI50 is > 100 µM (inactive) with 786-0; > 100 µM (inactive) with A498; > 100 µM (inactive) in the test on CAKI-1; 99.3 µM (inactive) in the test with CCRF-CEM; > 100 µM (inactive) in the test on COLO 205; > 100 µM (inactive) in the test on DU-145. The GI50 was 19.1 µM (inactive) with EKVX; > 100 µM (inactive) with HCT-116; above 100 µM in the test on HCT-15; > 100 µM (inactive) in the test with IGROV-1; > 100 µM (inactive) with LOX IMVI; > 100 µM (inactive) in the test with MCF7. In addition, the GI50 was > 100 µM (inactive) in the test with MDA-N; > 100 µM (inactive) with OVCAR-4; > 100 µM (inactive) in the test with SN12C; > 100 µM (inactive) with SNB-19; > 100 µM (inactive) in the test on SR; 78.5 µM (inactive) in the test with T47D. For the same molecule, the GI50 in the test with UACC-257 and in the test on UO-31 was > 100 µM (inactive) each time.
Take `CC1C(=O)C(C)C(c2ccccc2)N(N=O)C1c1ccccc1` (stereo not given): the GI50 with 786-0 is 126 µM (inactive); with A498 it was 247 µM (inactive); in the test with CAKI-1, 184 µM (inactive); in the test with CCRF-CEM, > 662 µM (inactive); with COLO 205, > 553 µM (inactive); in the test on DU-145, 173 µM (inactive). The GI50 with EKVX is > 100 µM (inactive); in the test with HCT-116, 127 µM (inactive); in the test with HCT-15, above 100 µM; in the test with IGROV-1 it was > 72.9 µM (inactive); in the test with LOX IMVI, > 533 µM (inactive); with MCF7, > 100 µM (inactive). Moreover, the GI50 is 134 µM (inactive) in the test on MDA-N; > 65.9 µM (inactive) with OVCAR-4; 400 µM (inactive) with SN12C; 64.4 µM (inactive) with SNB-19; > 439 µM (inactive) in the test with SR; 60.8 µM (inactive) in the test with T47D. The GI50 with UACC-257 was > 548 µM (inactive); with UO-31 it was > 21.1 µM (inactive).
As to `COc1ccc2nc3ccccc3c(NCCCN(C)CCCl)c2c1`, the GI50 with 786-0 was 0.104 µM (active); in the test with A498 it was 0.458 µM (active); in the test with CAKI-1 it was 0.231 µM (active); with CCRF-CEM, 0.064 µM (active); in the test on COLO 205, 0.147 µM (active); with DU-145, 0.333 µM (active). The GI50 is 0.938 µM (active) in the test with EKVX; 0.0877 µM (active) in the test on HCT-116; 0.444 µM in the test on HCT-15; 0.328 µM (active) with IGROV-1; 0.138 µM (active) with LOX IMVI; 0.213 µM (active) in the test on MCF7. For the same molecule, the GI50 is 0.311 µM (active) in the test on MDA-N; 0.324 µM (active) with OVCAR-4; 0.16 µM (active) in the test with SN12C; 0.601 µM (active) in the test with SNB-19; < 0.0128 µM (active) in the test with SR; 0.0358 µM (active) in the test with T47D. Moreover, the GI50 in the test on UACC-257 is 0.644 µM (active); in the test on UO-31 it was 0.592 µM (active).
With `CCCCCCCC/C=C\CCCCCCC/C=C1\C[C@](/C=C/C(=O)OC)(CO)OC1=O`, the GI50 is 1.33 µM (inactive) with 786-0; 8.34 µM (inactive) with A498; 1.29 µM (inactive) in the test on CAKI-1; 1.32 µM (inactive) in the test on CCRF-CEM; 2.02 µM (inactive) in the test with COLO 205; 10.8 µM (inactive) in the test on DU-145. In addition, the GI50 in the test with EKVX was 10.4 µM (inactive); in the test on HCT-116 it was 2.16 µM (inactive); in the test with HCT-15, 2.75 µM; in the test on IGROV-1, 2.75 µM (inactive); with LOX IMVI, 1.38 µM (inactive); with MCF7, 3.28 µM (inactive). For the same molecule, the GI50 in the test on MDA-N is 0.834 µM (active); with OVCAR-4 it was 3.2 µM (inactive); in the test with SN12C it was 1.56 µM (inactive); in the test on SNB-19, 4.54 µM (inactive); in the test on SR, 2.74 µM (inactive); in the test with T47D, 3.27 µM (inactive). In addition, the GI50 with UACC-257 is 12.6 µM (inactive); in the test on UO-31, 1.15 µM (inactive).
As for `NC(=O)c1ccc(NCC2=CC(=O)C=CC2=O)cc1`, the GI50 in the test with 786-0 was 19.6 µM (inactive); in the test on A498, 33.9 µM (inactive); in the test on CAKI-1, 19.1 µM (inactive); in the test on CCRF-CEM it was 7.01 µM (inactive); in the test on COLO 205, 19.1 µM (inactive); in the test with DU-145 it was > 100 µM (inactive). Moreover, the GI50 in the test with EKVX is 16.9 µM (inactive); with HCT-116, 18.7 µM (inactive); with HCT-15 it was 19.2 µM; in the test on IGROV-1, 20.8 µM (inactive); with LOX IMVI, 17.5 µM (inactive); in the test on MCF7 it was 23 µM (inactive). Besides, the GI50 with MDA-N was 17.3 µM (inactive); with OVCAR-4, 19.8 µM (inactive); in the test on SN12C it was 20.2 µM (inactive); in the test with SNB-19 it was > 100 µM (inactive); with SR it was 24.9 µM (inactive); in the test on T47D, 28.1 µM (inactive). Further, the GI50 with UACC-257 is 21.1 µM (inactive); in the test with UO-31, 17.3 µM (inactive).
Regarding `CCCN(CCc1ccc(-c2ccccc2)cc1)CCc1ccc2nn[nH]c2c1`, the GI50 in the test on 786-0 is 11.7 µM (inactive); in the test with A498, 17.3 µM (inactive); in the test with CAKI-1 it was 12.6 µM (inactive); in the test on CCRF-CEM, 4.26 µM (inactive); in the test on COLO 205, 2.55 µM (inactive); with DU-145, 9.25 µM (inactive). For the same molecule, the GI50 in the test with EKVX was 13.5 µM (inactive); in the test on HCT-116, 4.66 µM (inactive); with HCT-15, 7.76 µM; in the test on IGROV-1, 10 µM (inactive); in the test with LOX IMVI, 10.6 µM (inactive); with MCF7, 11.6 µM (inactive). The GI50 is 6.07 µM (inactive) in the test on MDA-N; 14.6 µM (inactive) in the test on OVCAR-4; 13.6 µM (inactive) in the test with SN12C; 13.1 µM (inactive) in the test on SNB-19; 3.74 µM (inactive) in the test on SR; 4.04 µM (inactive) in the test with T47D. Moreover, the figures for the GI50 with UACC-257 and in the test on UO-31 were 4.84 µM (inactive) and 9.31 µM (inactive), respectively.
For `CC(=O)N(CN1C(=O)CCC1C(=O)O)c1ccccc1` (stereo not given), the GI50 was > 53.8 µM (inactive) in the test with 786-0; > 59.7 µM (inactive) in the test on A498; > 57.3 µM (inactive) in the test with CAKI-1; > 54.2 µM (inactive) in the test with CCRF-CEM; > 58.6 µM (inactive) with COLO 205; > 61.4 µM (inactive) with DU-145. The GI50 in the test with EKVX was > 53.8 µM (inactive); in the test with HCT-116 it was > 56 µM (inactive); with HCT-15 it was above 100 µM; in the test with IGROV-1, > 50.4 µM (inactive); with LOX IMVI, > 56.9 µM (inactive); in the test with MCF7 it was > 56.8 µM (inactive). For the same molecule, the GI50 in the test on MDA-N was > 58.9 µM (inactive); in the test with OVCAR-4, > 100 µM (inactive); with SN12C, > 57.7 µM (inactive); with SNB-19, > 55.1 µM (inactive); with SR it was > 100 µM (inactive); in the test with T47D, > 57.3 µM (inactive). In addition, the GI50 is > 54.2 µM (inactive) in the test with UACC-257 and > 56.9 µM (inactive) in the test on UO-31.
`CCc1cccc(C(C)C)c1NC1=C([n+]2ccc(C)cc2)C(=O)c2ccccc2C1=O.[O-][Cl+3]([O-])([O-])[O-]`: the GI50 with 786-0 was 0.481 µM (active); in the test on A498, 2.75 µM (inactive); in the test on CAKI-1 it was 1.13 µM (inactive); in the test with CCRF-CEM, 0.21 µM (active); in the test on COLO 205 it was 1.1 µM (active); in the test with DU-145, 0.667 µM (active). Further, the GI50 in the test with EKVX is 0.817 µM (active); with HCT-116, 3.21 µM (inactive); with HCT-15, 3.62 µM; in the test on IGROV-1, 0.284 µM (active); with LOX IMVI, 0.673 µM (active); in the test with MCF7, 0.27 µM (active). Also, the GI50 is 1.65 µM (inactive) in the test on MDA-N; 1.73 µM (inactive) in the test on OVCAR-4; 0.475 µM (active) in the test on SN12C; 1.83 µM (inactive) in the test on SNB-19; 0.0525 µM (active) with SR; 0.13 µM (active) in the test with T47D. The results for the GI50 in the test on UACC-257 and with UO-31 were 0.993 µM (active) and 1.23 µM (inactive), respectively.
On to `CCN(CC)/C(SCc1ccccc1)=C(\C(Cl)=C(Cl)Cl)[N+](=O)[O-]`, for which the GI50 in the test on 786-0 is 16 µM (inactive); in the test on A498, 13.6 µM (inactive); with CAKI-1 it was 28.2 µM (inactive); in the test with CCRF-CEM, 12.5 µM (inactive); with COLO 205 it was 17.6 µM (inactive); with DU-145 it was 18 µM (inactive). In addition, the GI50 in the test with EKVX was 22.9 µM (inactive); in the test on HCT-116, 14.7 µM (inactive); in the test on HCT-15, 25.5 µM; in the test with IGROV-1 it was 17.2 µM (inactive); in the test with LOX IMVI, 14.1 µM (inactive); in the test on MCF7, 16.8 µM (inactive). The GI50 is 16.4 µM (inactive) with MDA-N; 15.6 µM (inactive) in the test with OVCAR-4; 21.1 µM (inactive) with SN12C; 28.9 µM (inactive) in the test on SNB-19; 17.8 µM (inactive) with SR; 18.9 µM (inactive) in the test on T47D. The GI50 with UACC-257 is 17.5 µM (inactive); with UO-31, 18.3 µM (inactive).
With `CCCCCCCCCCCCCCCCCCN(C)CC(COC)OP(=O)([O-])OCC[N+](C)(C)C` (stereo not given), the GI50 in the test with 786-0 was 0.938 µM (active); in the test on A498, 3.77 µM (inactive); in the test with CAKI-1 it was 1.33 µM (inactive); in the test with CCRF-CEM, 1.51 µM (inactive); in the test on COLO 205, 1.21 µM (inactive); with DU-145, 2.22 µM (inactive). For the same molecule, the GI50 in the test on EKVX was 12.5 µM (inactive); with HCT-116 it was 1.66 µM (inactive); in the test on HCT-15 it was 3.14 µM; with IGROV-1, 0.532 µM (active); with LOX IMVI, 5.14 µM (inactive); with MCF7, 3.97 µM (inactive). In addition, the GI50 in the test on MDA-N is 4.2 µM (inactive); in the test with OVCAR-4, 2.54 µM (inactive); with SN12C, 3.3 µM (inactive); with SNB-19, 0.867 µM (active); in the test with SR it was 0.341 µM (active); with T47D it was 14 µM (inactive). Besides, the values for the GI50 in the test with UACC-257 and in the test with UO-31 were 9.08 µM (inactive) and 7.52 µM (inactive), respectively.
